Data reported in patent US20050197350A1, “Novel quinoline, tetrahydroquinazoline, and pyrimidine derivatives and methods of treatment related to the use thereof” (TAISHO PHARMACEUTICAL CO., LTD., priority 2003, published 2005).

system: MCH receptors; experiment: MCH receptor activity class (method not given); settings: class by percent of control at 10^-7 M or IC50

For Cc1cc(C)c(C(=O)C(=O)N[C@H]2CC[C@@H](Nc3cc(N(C)C)c4ccccc4n3)CC2)c(C)c1 [compound 775, N-(cis-4-{[4-(dimethylamino)quinolin-2-yl]amino}cyclohexyl)-2-mesityl-2-oxoacetamide], which class is on record?
The class was 2 (Class 2: The value of percent of control at 10^−7 M was from 40% to 60% or the value of IC′50 was from 50 nM to 200 nM.).

For CN(C)c1cc(N[C@H]2CC[C@@H](NC(=O)c3cnc4ccccc4c3)CC2)nc2ccccc12 [compound 776], which class is on record?
Its class is 3 (Class 3 The value of percent of control at 10^−7 M was more than 60% or the value of IC50 was more than 200 nM.).

How did the class turn out when CN(C)c1cc(N[C@H]2CC[C@@H](NC(=O)c3ccc4ncsc4c3)CC2)nc2ccccc12 [compound 779] was run?
The class was 3 (Class 3 The value of percent of control at 10^−7 M was more than 60% or the value of IC50 was more than 200 nM.).

How did the class turn out when CN(C)c1cc(N[C@H]2CC[C@@H](NC(=O)c3cc(Cl)ccc3O)CC2)nc2ccccc12 [compound 780, 5-chloro-N-(cis-4-{[4-(dimethylamino)quinolin-2-yl]amino}cyclohexyl)-2-hydroxybenzamide] was run?
The class was 2 (Class 2: The value of percent of control at 10^−7 M was from 40% to 60% or the value of IC′50 was from 50 nM to 200 nM.).

With CSc1ccc(Cl)c(C(=O)N[C@H]2CC[C@@H](Nc3cc(N(C)C)c4ccccc4n3)CC2)c1 [compound 781] as the molecule, how does the class read?
Its class is 3 (Class 3 The value of percent of control at 10^−7 M was more than 60% or the value of IC50 was more than 200 nM.).

COc1cccc2cc(C(=O)N[C@H]3CC[C@@H](Nc4cc(N(C)C)c5ccccc5n4)CC3)oc12 [compound 782] was tested. Which class did it give?
The class was 3 (Class 3 The value of percent of control at 10^−7 M was more than 60% or the value of IC50 was more than 200 nM.).

With Cc1cccc(C(=O)N[C@H]2CC[C@@H](Nc3cc(N(C)C)c4ccccc4n3)CC2)c1N [compound 783] as the molecule, how does the class read?
Its class is 3 (Class 3 The value of percent of control at 10^−7 M was more than 60% or the value of IC50 was more than 200 nM.).

For COc1cc(C(=O)N[C@H]2CC[C@@H](Nc3cc(N(C)C)c4ccccc4n3)CC2)cc(OC)c1O [compound 784], which class is on record?
Its class is 3 (Class 3 The value of percent of control at 10^−7 M was more than 60% or the value of IC50 was more than 200 nM.).

How did the class turn out when CN(C)c1cc(N[C@H]2CC[C@@H](NC(=O)c3ccnc4ccccc34)CC2)nc2ccccc12 [compound 785] was run?
Its class is 3 (Class 3 The value of percent of control at 10^−7 M was more than 60% or the value of IC50 was more than 200 nM.).

For C=CCSc1ncccc1C(=O)N[C@H]1CC[C@@H](Nc2cc(N(C)C)c3ccccc3n2)CC1 [compound 786], which class is on record?
Its class is 3 (Class 3 The value of percent of control at 10^−7 M was more than 60% or the value of IC50 was more than 200 nM.).

CN(C)c1cc(N[C@H]2CC[C@@H](NC(=O)c3cc(C(C)(C)C)c(O)c(C(C)(C)C)c3)CC2)nc2ccccc12 [compound 787] was tested. Which class did it give?
Its class is 3 (Class 3 The value of percent of control at 10^−7 M was more than 60% or the value of IC50 was more than 200 nM.).

With CN(C)c1cc(N[C@H]2CC[C@@H](CNC(=O)c3ccc(Br)s3)CC2)nc2ccccc12 [compound 788] as the molecule, how does the class read?
Its class is 3 (Class 3 The value of percent of control at 10^−7 M was more than 60% or the value of IC50 was more than 200 nM.).

For CN(C)c1cc(N[C@H]2CC[C@@H](CNC(=O)Cc3c(Cl)ccc(Cl)c3Cl)CC2)nc2ccccc12 [compound 789, N-[(cis-4-{[4-(dimethylamino)quinolin-2-yl]amino}cyclohexyl)methyl]-2-(2,3,6-trichlorophenyl)acetamide], which class is on record?
Its class is 1 (Class 1: The value of percent of control at 10^−7 M was less than 40% or the value of IC50 was less than 50 nM.).

CN(C)c1cc(N[C@H]2CC[C@@H](CNC(=O)Cc3ccc(F)cc3Cl)CC2)nc2ccccc12 [compound 790] was tested. Which class did it give?
The class was 3 (Class 3 The value of percent of control at 10^−7 M was more than 60% or the value of IC50 was more than 200 nM.).

CN(C)c1cc(N[C@H]2CC[C@@H](CNC(=O)c3ccc(-c4ccc(Cl)cc4[N+](=O)[O-])o3)CC2)nc2ccccc12 [compound 791] was tested. Which class did it give?
Its class is 3 (Class 3 The value of percent of control at 10^−7 M was more than 60% or the value of IC50 was more than 200 nM.).

Which class does the source give for CN(C)c1cc(N[C@H]2CC[C@@H](CNC(=O)c3ccc(Cl)s3)CC2)nc2ccccc12 [compound 792] here?
The class was 3 (Class 3 The value of percent of control at 10^−7 M was more than 60% or the value of IC50 was more than 200 nM.).

Which class does the source give for CN(C)c1cc(N[C@H]2CC[C@@H](CNC(=O)CCc3ccccc3O)CC2)nc2ccccc12 [compound 794] here?
Its class is 3 (Class 3 The value of percent of control at 10^−7 M was more than 60% or the value of IC50 was more than 200 nM.).

Which class does the source give for CN(C)c1cc(N[C@H]2CC[C@@H](CNC(=O)c3ccc(I)o3)CC2)nc2ccccc12 [compound 795, N-[(cis-4-{[4-(dimethylamino)quinolin-2-yl]amino}cyclohexyl)methyl]-5-iodo-2-furamide] here?
Its class is 3 (Class 3 The value of percent of control at 10^−7 M was more than 60% or the value of IC50 was more than 200 nM.).

CN(C)c1cc(N[C@H]2CC[C@@H](CNC(=O)Cc3ccccc3I)CC2)nc2ccccc12 [compound 796] was tested. Which class did it give?
Its class is 3 (Class 3 The value of percent of control at 10^−7 M was more than 60% or the value of IC50 was more than 200 nM.).

How did the class turn out when CN(C)c1cc(N[C@H]2CC[C@@H](CNC(=O)/C=C/c3cccc([N+](=O)[O-])c3)CC2)nc2ccccc12 [compound 797] was run?
Its class is 2 (Class 2: The value of percent of control at 10^−7 M was from 40% to 60% or the value of IC′50 was from 50 nM to 200 nM.).

For CN(C)c1cc(N[C@H]2CC[C@@H](CNC(=O)c3ccccc3Cc3ccccc3)CC2)nc2ccccc12 [compound 799], which class is on record?
Its class is 3 (Class 3 The value of percent of control at 10^−7 M was more than 60% or the value of IC50 was more than 200 nM.).

Which class does the source give for CN(C)c1cc(N[C@H]2CC[C@@H](CNC(=O)C(c3ccc(Cl)cc3)c3ccc(Cl)cc3)CC2)nc2ccccc12 [compound 800, 2,2-bis(4-chlorophenyl)-N-[(cis-4-{[4-(dimethylamino)quinolin-2-yl]amino}cyclohexyl)methyl]acetamide] here?
Its class is 3 (Class 3 The value of percent of control at 10^−7 M was more than 60% or the value of IC50 was more than 200 nM.).

With Cc1ccc(-c2ccc(C(=O)NC[C@H]3CC[C@@H](Nc4cc(N(C)C)c5ccccc5n4)CC3)o2)c([N+](=O)[O-])c1 [compound 801] as the molecule, how does the class read?
Its class is 3 (Class 3 The value of percent of control at 10^−7 M was more than 60% or the value of IC50 was more than 200 nM.).

How did the class turn out when CN(C)c1cc(N[C@H]2CC[C@@H](CNC(=O)c3ccc([N+](=O)[O-])s3)CC2)nc2ccccc12 [compound 802, N-[(cis-4-{[4-(dimethylamino)quinolin-2-yl]amino}cyclohexyl)methyl]-5-nitrothiophene-2-carboxamide] was run?
Its class is 3 (Class 3 The value of percent of control at 10^−7 M was more than 60% or the value of IC50 was more than 200 nM.).

For Cc1cc(C(=O)NC[C@H]2CC[C@@H](Nc3cc(N(C)C)c4ccccc4n3)CC2)ccc1[N+](=O)[O-] [compound 803, N-[(cis-4-{[4-(dimethylamino)quinolin-2-yl]amino}cyclohexyl)methyl]-3-methyl-4-nitrobenzamide], which class is on record?
Its class is 3 (Class 3 The value of percent of control at 10^−7 M was more than 60% or the value of IC50 was more than 200 nM.).

For COc1cc(C(=O)NC[C@H]2CC[C@@H](Nc3cc(N(C)C)c4ccccc4n3)CC2)ccc1[N+](=O)[O-] [compound 804, N-[(cis-4-{[4-(dimethylamino)quinolin-2-yl]amino}cyclohexyl)methyl]-3-methoxy-4-nitrobenzamide], which class is on record?
Its class is 3 (Class 3 The value of percent of control at 10^−7 M was more than 60% or the value of IC50 was more than 200 nM.).

CN(C)c1cc(N[C@H]2CC[C@@H](CNC(=O)c3cn(Cc4ccccc4)c4ccccc34)CC2)nc2ccccc12 [compound 805] was tested. Which class did it give?
Its class is 3 (Class 3 The value of percent of control at 10^−7 M was more than 60% or the value of IC50 was more than 200 nM.).

CN(C)c1cc(N[C@H]2CC[C@@H](CNC(=O)CC3=CCCCC3)CC2)nc2ccccc12 [compound 806] was tested. Which class did it give?
The class was 3 (Class 3 The value of percent of control at 10^−7 M was more than 60% or the value of IC50 was more than 200 nM.).

CN(C)c1cc(N[C@H]2CC[C@@H](CNC(=O)Cc3ccccc3OC(F)(F)F)CC2)nc2ccccc12 [compound 808] was tested. Which class did it give?
Its class is 3 (Class 3 The value of percent of control at 10^−7 M was more than 60% or the value of IC50 was more than 200 nM.).

How did the class turn out when Cc1cc(C(=O)NC[C@H]2CC[C@@H](Nc3cc(N(C)C)c4ccccc4n3)CC2)cc(C)c1OCc1ccccc1 [compound 809] was run?
The class was 3 (Class 3 The value of percent of control at 10^−7 M was more than 60% or the value of IC50 was more than 200 nM.).

Which class does the source give for CN(C)c1cc(N[C@H]2CC[C@@H](CNC(=O)C3c4ccccc4Oc4ccccc43)CC2)nc2ccccc12 [compound 810] here?
The class was 3 (Class 3 The value of percent of control at 10^−7 M was more than 60% or the value of IC50 was more than 200 nM.).

How did the class turn out when CN(C)c1cc(N[C@H]2CC[C@@H](CNC(=O)Cc3csc4ccccc34)CC2)nc2ccccc12 [compound 811] was run?
The class was 3 (Class 3 The value of percent of control at 10^−7 M was more than 60% or the value of IC50 was more than 200 nM.).

With CN(C)c1ccnc(N[C@H]2CC[C@@H](NC(=O)c3ccc(Br)s3)CC2)n1 [compound 812] as the molecule, how does the class read?
Its class is 3 (Class 3 The value of percent of control at 10^−7 M was more than 60% or the value of IC50 was more than 200 nM.).

With CN(C)c1ccnc(N[C@H]2CC[C@@H](NC(=O)Cc3c(Cl)ccc(Cl)c3Cl)CC2)n1 [compound 813] as the molecule, how does the class read?
Its class is 3 (Class 3 The value of percent of control at 10^−7 M was more than 60% or the value of IC50 was more than 200 nM.).

With CN(C)c1ccnc(N[C@H]2CC[C@@H](NC(=O)Cc3ccc(F)cc3Cl)CC2)n1 [compound 814] as the molecule, how does the class read?
The class was 3 (Class 3 The value of percent of control at 10^−7 M was more than 60% or the value of IC50 was more than 200 nM.).

For CN(C)c1ccnc(N[C@H]2CC[C@@H](NC(=O)c3ccc(-c4ccc(Cl)cc4[N+](=O)[O-])o3)CC2)n1 [compound 815, 5-(4-chloro-2-nitrophenyl)-N-(cis-4-{[4-(dimethylamino)pyrimidin-2-yl]amino}cyclohexyl)-2-furamide], which class is on record?
The class was 1 (Class 1: The value of percent of control at 10^−7 M was less than 40% or the value of IC50 was less than 50 nM.).

With CN(C)c1ccnc(N[C@H]2CC[C@@H](NC(=O)c3ccc(Cl)s3)CC2)n1 [compound 816] as the molecule, how does the class read?
Its class is 3 (Class 3 The value of percent of control at 10^−7 M was more than 60% or the value of IC50 was more than 200 nM.).
